Source: the supplement of paper PMC5908809

Columns and labels:
[1] = test system: normal NK cells expanded with K562-aAPC; experiment: drug sensitivity score (DSS) (DSS units); higher = more sensitive; extreme values may be limits of the assay; settings: 72 h; IL-2 2.5 ng/mL
Experimental: (§1)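 Drug sensitivity and resistance testing on K562-aAPC-expanded normal NK cells: 5 concentrations (10-fold steps over a 10,000-fold range), 72 h at 37 °C, viability by CellTiter-Glo normalised to DMSO and benzethonium chloride controls; DSS from the fitted curve.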

[2] = test system: normal NK cells expanded with K562-aAPC; experiment: percent inhibition of viability; higher = more inhibition; settings: 72 h, IL-2 2.5 ng/mL
Experimental: as §1

[3] = test system: normal primary NK cells, pool 1 (3 donors), resting (IL-2 0 ng/mL); experiment: as above; settings: 72 h
[4] = test system: normal primary NK cells, pool 2 (3 donors) (IL-2 2.5 ng/mL); experiment: as above; settings: 72 h
KAI3 (IL-2 2.5 ng/mL) [5] = experiment: as above; settings: 72 h
KHYG-1 (IL-2 2.5 ng/mL) [6] = experiment: as above; settings: 72 h
NKL (IL-2 2.5 ng/mL) [7] = experiment: as above; settings: 72 h
YT (IL-2 2.5 ng/mL) [8] = experiment: as above; settings: 72 h
IMC-1 (IL-2 20 ng/mL) [9] = experiment: as above; settings: 72 h
DERL-7 (IL-2 2.5 ng/mL) [10] = experiment: as above; settings: 72 h
NK-92 (IL-2 2.5 ng/mL) [11] = experiment: as above; settings: 72 h
[12] = test system: normal primary NK cells, pool 3 (3 donors) (IL-2 2.5 ng/mL); experiment: as above; settings: 72 h
NK-YS (IL-2 2.5 ng/mL) [13] = experiment: as above; settings: 72 h
[14] = test system: normal primary NK cells, pool 1 (3 donors) (IL-2 2.5 ng/mL); experiment: as above; settings: 72 h
SNK-6 (IL-2 2.5 ng/mL) [15] = experiment: as above; settings: 72 h
[16] = test system: normal primary NK cells, pool 1 (3 donors), resting (IL-2 0 ng/mL); experiment: drug sensitivity score (DSS) (DSS units); higher = more sensitive; extreme values may be limits of the assay; settings: 72 h
[17] = test system: normal primary NK cells, pool 2 (3 donors) (IL-2 2.5 ng/mL); experiment: as above; settings: 72 h
KAI3 (IL-2 2.5 ng/mL) [18] = experiment: as above; settings: 72 h
KHYG-1 (IL-2 2.5 ng/mL) [19] = experiment: as above; settings: 72 h
NKL (IL-2 2.5 ng/mL) [20] = experiment: as above; settings: 72 h
YT (IL-2 2.5 ng/mL) [21] = experiment: as above; settings: 72 h
IMC-1 (IL-2 20 ng/mL) [22] = experiment: as above; settings: 72 h
DERL-7 (IL-2 2.5 ng/mL) [23] = experiment: as above; settings: 72 h
NK-92 (IL-2 2.5 ng/mL) [24] = experiment: as above; settings: 72 h
[25] = test system: normal primary NK cells, pool 3 (3 donors) (IL-2 2.5 ng/mL); experiment: as above; settings: 72 h
NK-YS (IL-2 2.5 ng/mL) [26] = experiment: as above; settings: 72 h
[27] = test system: normal primary NK cells, pool 1 (3 donors) (IL-2 2.5 ng/mL); experiment: as above; settings: 72 h
SNK-6 (IL-2 2.5 ng/mL) [28] = experiment: as above; settings: 72 h

CN(C)C[C@@H]1CCn2cc(c3ccccc32)C2=C(C(=O)NC2=O)c2cn(c3ccccc23)CCO1 [Ruboxistaurin] (max concentration tested 10000 nM)
Settings | drug sensitivity score
DERL-7 (IL-2 2.5 ng/mL) [23] | 10.5
IMC-1 (IL-2 20 ng/mL) [22] | 4.21
KAI3 (IL-2 2.5 ng/mL) [18] | 8.93
KHYG-1 (IL-2 2.5 ng/mL) [19] | 10.2
NK-92 (IL-2 2.5 ng/mL) [24] | 5.89
NK-YS (IL-2 2.5 ng/mL) [26] | 9.16
NKL (IL-2 2.5 ng/mL) [20] | 9.73
SNK-6 (IL-2 2.5 ng/mL) [28] | 6.19
YT (IL-2 2.5 ng/mL) [21] | 6.1
[1] | 9.52
[16] | 11.2
[17] | 7.72
[25] | 7.99
[27] | 9.78

percent inhibition of viability [%]
Settings | 1 nM | 10 nM | 100 nM | 1000 nM | 10000 nM
DERL-7 (IL-2 2.5 ng/mL) [10] | -1.56 | 1.57 | 18.1 | 40.6 | 99.9
IMC-1 (IL-2 20 ng/mL) [9] | -5.42 | -4.44 | -4.88 | -32.9 | 100
KAI3 (IL-2 2.5 ng/mL) [5] | 0.82 | 1.03 | 11.8 | 32 | 93.8
KHYG-1 (IL-2 2.5 ng/mL) [6] | 1.18 | 0.63 | 1.33 | 34 | 98.9
NK-92 (IL-2 2.5 ng/mL) [11] | -3.12 | -11.3 | -3.13 | 2.96 | 98.9
NK-YS (IL-2 2.5 ng/mL) [13] | 0.95 | -3.62 | 0.25 | 24.6 | 97.6
NKL (IL-2 2.5 ng/mL) [7] | -0.55 | -7.15 | 3.58 | 36.2 | 93.1
SNK-6 (IL-2 2.5 ng/mL) [15] | -9.54 | 1.49 | -3.03 | 4.61 | 99.9
YT (IL-2 2.5 ng/mL) [8] | 0.39 | 0.99 | -3.02 | 5.34 | 96
[2] | -0.21 | -2.52 | 9.41 | 31.6 | 99.7
[3] | -16.4 | -10.1 | -8.8 | 45.3 | 99.1
[4] | -17.6 | -5.86 | -4.21 | 13.1 | 100
[12] | -10.5 | -8.66 | 0.81 | 14.8 | 99.8
[14] | -7.03 | -9.34 | 0.45 | 29 | 99.8

CNCc1ccc(-c2[nH]c3cc(F)cc4c3c2CCNC4=O)cc1 [Rucaparib] (max concentration tested 10000 nM)
Settings | drug sensitivity score
DERL-7 (IL-2 2.5 ng/mL) [23] | 1.29
IMC-1 (IL-2 20 ng/mL) [22] | 1.47
KAI3 (IL-2 2.5 ng/mL) [18] | 4.23
KHYG-1 (IL-2 2.5 ng/mL) [19] | 1.18
NK-92 (IL-2 2.5 ng/mL) [24] | 3.52
NK-YS (IL-2 2.5 ng/mL) [26] | 6.07
NKL (IL-2 2.5 ng/mL) [20] | 13.3
SNK-6 (IL-2 2.5 ng/mL) [28] | 1.5
YT (IL-2 2.5 ng/mL) [21] | 0.68
[1] | 1.54
[16] | 0
[17] | 0
[25] | 0
[27] | 0

percent inhibition of viability [%]
Settings | 1 nM | 10 nM | 100 nM | 1000 nM | 10000 nM
DERL-7 (IL-2 2.5 ng/mL) [10] | -9.87 | 10 | 4.56 | 3.4 | 22.7
IMC-1 (IL-2 20 ng/mL) [9] | -6.39 | -3.67 | -0.13 | 1.12 | 30.4
KAI3 (IL-2 2.5 ng/mL) [5] | -1.49 | 2.99 | 3.22 | 18.5 | 43.5
KHYG-1 (IL-2 2.5 ng/mL) [6] | -3.58 | -2.03 | -1.44 | 4.57 | 20
NK-92 (IL-2 2.5 ng/mL) [11] | -18.8 | 8.56 | -9.2 | 6.16 | 47.7
NK-YS (IL-2 2.5 ng/mL) [13] | -2.32 | -3.72 | 1.59 | 11.2 | 75.7
NKL (IL-2 2.5 ng/mL) [7] | -15.5 | 5.49 | 23.9 | 53.6 | 87.9
SNK-6 (IL-2 2.5 ng/mL) [15] | 7.29 | -11.5 | -2.3 | 1 | 31
YT (IL-2 2.5 ng/mL) [8] | -4.68 | -5.01 | -3.45 | 2.32 | 17.4
[2] | -4.01 | -1.44 | -1.55 | 6.35 | 21.8
[3] | 3.79 | 19.2 | 4.4 | 7.5 | -5.08
[4] | -2.83 | 5.08 | -1.77 | -1.32 | 4.05
[12] | -0.27 | 12.1 | 3.56 | -0.98 | 7.3
[14] | 4.59 | 15.4 | 12.4 | 3.34 | 18.9
